In patent publication US12133486B2, “Methods of propagation of arbuscular mycorrhizal fungi (AMF) and uses thereof” (Terra Microbes, LLC, priority 2021, dated 2024):

Experiments:
AM fungi = assay: Field plot study: AMF spore counts in soil around western wheatgrass roots; format: in vivo; conditions: field plots
Description: (§1) Twelve plots of size 50 cm by 50 cm were established on a homogenous site 2.54 meters (running northeast and southwest) by 4.06 meters (running southeast and northwest). Plant distribution was mostly homogeneous across the entire site, with western wheatgrass dominant. The plots were in four rows with three plots in each row. Within a row plots were 25 cm apart. Rows were 50 cm apart. An experimental unit was one plot. Treatments were replicated three times. Treatments included: controls (no treatment), potassium chloride treatment, potassium phosphate treatment, and potassium phosphite treatment. (See, FIG. 2).
In this study phosphorus, either as phosphate or phosphite, was added at a rate of 120 kg of P per hectare (ha). Scaled down this equates to 3 grams of phosphorous per plot. One ha is 10,000 m^2. Each plot is 50 cm by 50 cm, or 0.25 m^2. The subsequent calculation then is 120 Kg/10,000 m^2=X/0.25 m^2; X=3.00 grams of P per plot. (See Table 2).
(§2) Treatments: All plots received the same amount of solution. The control plots were treated with distilled water only (6.375 L). The KCl plots treated with distilled water containing the same amount of K as was needed to convert the phosphorous acid (H3PO3) to dipotassium phosphite (K2HPO3). The phosphate plots were treated with sufficient dipotassium phosphate (K2HPO4) to deliver 3 g of P per plot dissolved in the same amount of distilled water as the control plots received and the KCl plots received. The phosphite plots were treated with sufficient dipotassium phosphite (K2HPO3) to deliver 3 g of P per plot dissolved in the same amount of distilled water as the control plots received, the KCl plots received and the phosphate plots received.
The field experiment reported in this example was conducted during June through October. Plots were established during early June and treated on the 15th and 16th day (as in Example 3 above). The first soil and root sampling was performed 14 days later (t=14). The second set of samples were taken 47 days later (t=61), and the third set 60 days later (t=121 days). Sample size and depth was as detailed above in Example 3.
AMF spores were evaluated in soil samples from which plant roots including plant roots of western wheatgrass had existed and had been removed. Evaluations were performed on the T=0 and the T=47 samples. These evaluations generally entailed mixing the sample with water, centrifugation, and decanting water. This step was performed to remove light organic matter and other light materials, e.g., leaf fragments. This was followed by mixing the soil with a solution of sodium hexametaphosphate (2%) in 2 M sucrose. Centrifugation results in the spores floating on the sucrose solution or suspended in it. The sucrose solution plus spores is decanted into a separatory funnel. The suspension was allowed to exit the funnel one drop at a time. The spores adhere to the inside of the funnel and once all liquid has exited the funnel the spores are washed into a petri-dish and counted under a dissecting microscope.
The specific protocol for spore extraction was as follows: • A) Weigh 5 g of air dried soil into a 20 ml centrifuge tube. For a complete sample this is replicated four times. • B) Fill each tube with water to ˜1.5 cm of the top. Stir to suspend organic matter and other light debris. Let all tubes stand for 10 minutes. • C) Centrifuge at 2000 rpm (475.2×g) for 10 minutes. Be sure tubes are placed across from each other in the centrifuge and are within 0.1 g of the same weight. • D) Pour off and discard supernatant while stirring surface and rotating tube. • E) If much organic matter and other light material remains, repeat steps B through D. • F) Add sucrose/sodium hexametaphosphate solution (2 molar sucrose containing 2% hexametaphosphate: 684.6 g of sucrose (store grade is adequate) and 20 g of sodium hexametaphosphate in one liter of solution using distilled water) to centrifuge tubes to ˜1.5 cm of top. […]

[1] = test system: AMF infections of western wheatgrass (Pascopyron smithii) roots; assay: Field plot study: AM fungal infection of western wheatgrass roots; format: in vivo; conditions: field plots
Description: as §1, §2
The field experiment reported in this example was conducted during June through October. Plots were established during early June and treated on the 15th and 16th day (as in Example 3 above). […] Sample size and depth was as detailed above in Example 3.
Analyses of infections were performed by examining roots of wheatgrass (Pascopyron smithii). This plant was the dominant plant in all of the plots and is known to be commonly infected with AM fungi. (See, Loree M. A. J. and Williams S. E., New Phytologist, 106:735-744, 1987; and Wang B. and Qui Y.-L. 2006, Ibid.). During sampling of soils using the methodology outlined in Example 3, above, root of target plants were removed and separated by plant species, each sample being labeled and preserved in FAA solution until being further processed.
Staining of the roots was achieved according to published procedures (see, Phillips J. M. and Hayman D. S., Trans. Brit. Mycological Soc., 55:158-160, 1970) except that cotton blue lactophenol was substituted with lactic acid glycerol with trypan blue since lactophenol is toxic. The procedure used for staining was as follows: • A) Remove roots from FAA Solutions. Cut into 1 cm lengths. Place in test tube, push roots to the bottom of the test tube. • B) Cover roots with 10% KOH (10 grams of reagent grade KOH in enough distilled water to 100 ml). Let stand overnight, about 10 hours. • C) Simmer at 90° C. for one hour in a water bath (container with water and test tubes with roots over a heat source). • D) Rinse in tap water. • E) Rinse five minutes in 0.1 N HCl (3.65 […] of HCl in 1000 ml total volume with distilled water). • F) Rinse in tap water. • G) Simmer at 90° C. one hour (in water bath) in Trypan blue Lactic Acid Glycerol (distilled water, 100 ml; lactic acid (reagent grade 85 to 88%) 100 ml; glycerin (reagent grade 85% also listed as glycerol), 200 ml; trypan blue, 0.1 grams (60% dye content). • H) Rinse in tap water. • I) Place in clear lactic acid glycerol (same formulation as above except without the Trypan blue) if destaining is necessary. Samples can be simmered at 90° C. (one hour in water bath) or left at room temperature for at least 72 hours or longer. • J) Mount on standard glass slide (2.5 cm by 7.6 cm) in lactic acid glycerol. Cover slip (2.3 cm by 4.8 cm) used.
An estimate of the degree of infection of western wheatgrass was made by making microscopic scans of each slide such that 40 root segments were evaluated. The evaluation was performed using the 20× objective, e.g., 200× total magnification—eyepieces were 10× multiplied by the objective magnification. […]

[Cl-].[K+] [KCl, potassium chloride, reference compound]
Total Spores t = 47 days (AM fungi; mean n = 3, P added at 120 kg/ha (KCl: same K), second sampling): 14806Ab Per 100 g soil
Total Spores t = 0 days (AM fungi; mean n = 3, P added at 120 kg/ha (KCl: same K), t = 0 = first sampling, 14 days after treatment): 6398Aa Per 100 g soil
spore numbers compared with the control (AM fungi; second sampling, t = 47): significant increase in spore numbers from the control
infection level compared to the control and phosphorus treated plants ([1]; third sampling, t = 97 days): small depression in infection levels
AM Infection t = 0 days ([1]; western wheatgrass roots, mean n = 3, first sampling): 31Aa Per forty 1.1 mm root segments
AM Infection t = 47 days ([1]; western wheatgrass roots, mean n = 3, second sampling): 34Aab Per forty 1.1 mm root segments
AM Infection t = 97 days ([1]; western wheatgrass roots, mean n = 3, third sampling): 36BCabc Per forty 1.1 mm root segments
